Test results: ChEMBL document CHEMBL1687743, “Intravenous doripenem at 500 milligrams versus levofloxacin at 250 milligrams, with an option to switch to oral therapy, for treatment of complicated lower urinary tract infection and pyelonephritis” (Antimicrob Agents Chemother, 2009)
≈ marks a conversion by molar mass, not a printed value.

Assays:
Homo sapiens [1] = assay: Treatment emergent adverse event in intent-to-treat patient with complicated urinary tract infection assessed as constipation at 500 […], iv administered every 8 hrs for 10 days; assay type: ADME, organism-based; parameters: route intravenous; settings: in vivo
Klebsiella pneumoniae = assay: Antibacterial activity against Klebsiella pneumoniae infected in microbiologically evaluable patient with UTI assessed as cure rate at 500 mg, iv administered every 8 hrs for 10 days measured at test-of-cure visit; assay type: functional
Enterococcus faecalis = assay: Antibacterial activity against Enterococcus faecalis; assay type: functional
Homo sapiens [2] = assay: Treatment emergent adverse event in intent-to-treat patient with complicated urinary tract infection assessed as upper abdominal pain at 500 […], iv administered every 8 hrs for 10 days; assay type: organism-based; parameters: route intravenous; settings: in vivo
Homo sapiens [3] = assay: Drug related treatment emergent adverse event in intent-to-treat patient with complicated urinary tract infection assessed as phlebitis at 500 […], iv administered every 8 hrs for 10 days; assay type: toxicity, organism-based, Urine; parameters: dose 500 […], route intravenous; settings: in vivo
Homo sapiens [4] = assay: Drug related treatment emergent adverse event in intent-to-treat patient with complicated urinary tract infection assessed as >=1 adverse event at 500 mg/kg, iv administered every 8 hrs for 10 days; assay type: toxicity, organism-based, Urine; parameters: dose 500 mg/kg, route intravenous; settings: in vivo
Homo sapiens [5] = assay: Treatment emergent adverse event in intent-to-treat patient with complicated urinary tract infection assessed as phlebitis at 500 […], iv administered every 8 hrs for 10 days; assay type: organism-based; parameters: route intravenous; settings: in vivo
Staphylococcus aureus = assay: Antibacterial activity against Staphylococcus aureus; assay type: functional
Proteus mirabilis = assay: Antibacterial activity against Proteus mirabilis infected in microbiologically evaluable patient with UTI assessed as cure rate at 500 mg, iv administered every 8 hrs for 10 days measured at test-of-cure visit; assay type: functional
Escherichia coli [6] = assay: Antibacterial activity against Escherichia coli isolated from patient with urinary tract infection receiving drug at 500 mg, iv administered every 8 hrs for 10 days measured after post drug therapy; assay type: functional; settings: Urine
Escherichia coli [7] = assay: Antibacterial activity against levofloxacin-resistant Escherichia coli infected in microbiologically evaluable patient with UTI assessed as cure rate at 500 mg, iv administered every 8 hrs for 10 days measured at test-of-cure visit; assay type: functional
Homo sapiens [8] = assay: Drug related treatment emergent adverse event in intent-to-treat patient with complicated urinary tract infection assessed as headache at 500 […], iv administered every 8 hrs for 10 days; assay type: toxicity, organism-based, Urine; parameters: dose 500 […], route intravenous; settings: in vivo
Escherichia coli [9] = assay: Antibacterial activity against levofloxacin-resistant Escherichia coli infected in clinically evaluable patient with UTI assessed as cure rate at 500 mg, iv administered every 8 hrs for 10 days measured at test-of-cure visit; assay type: functional
Homo sapiens [10] = assay: Treatment emergent adverse event in intent-to-treat patient with complicated urinary tract infection assessed as abdominal pain at 500 […], iv administered every 8 hrs for 10 days; assay type: ADME, organism-based, Urine; parameters: route intravenous; settings: in vivo
Homo sapiens [11] = assay: Treatment emergent adverse event in intent-to-treat patient with complicated urinary tract infection assessed as headache at 500 […], iv administered every 8 hrs for 10 days; assay type: ADME, organism-based, Urine; parameters: route intravenous; settings: in vivo
Homo sapiens [12] = assay: Treatment emergent adverse event in intent-to-treat patient with complicated urinary tract infection assessed as nausea at 500 […], iv administered every 8 hrs for 10 days; assay type: organism-based; parameters: route intravenous; settings: in vivo
Homo sapiens [13] = assay: Treatment emergent adverse event in intent-to-treat patient with complicated urinary tract infection assessed as vomiting at 500 […], iv administered every 8 hrs for 10 days; assay type: organism-based; parameters: route intravenous; settings: in vivo
Homo sapiens [14] = assay: Treatment emergent adverse event in intent-to-treat patient with complicated urinary tract infection assessed as diarrhea at 500 […], iv administered every 8 hrs for 10 days; assay type: ADME, organism-based; parameters: route intravenous; settings: in vivo
Homo sapiens [15] = assay: Drug related treatment emergent adverse event in intent-to-treat patient with complicated urinary tract infection assessed as nausea at 500 […], iv administered every 8 hrs for 10 days; assay type: toxicity, organism-based; parameters: dose 500 […], route intravenous; settings: in vivo
Serratia marcescens = assay: Antibacterial activity against Serratia marcescens isolated from patient with urinary tract infection receiving drug at 500 mg, iv administered every 8 hrs for 10 days measured after post drug therapy; assay type: functional; settings: Urine
Homo sapiens [16] = assay: Treatment emergent adverse event in intent-to-treat patient with complicated urinary tract infection assessed as insomnia at 500 […], iv administered every 8 hrs for 10 days; assay type: ADME, organism-based, Urine; parameters: route intravenous; settings: in vivo
Homo sapiens [17] = assay: Treatment emergent adverse event in intent-to-treat patient with complicated urinary tract infection assessed as hypokalemia at 500 […], iv administered every 8 hrs for 10 days; assay type: ADME, organism-based, Urine; parameters: route intravenous; settings: in vivo
Enterococcus faecium = assay: Antibacterial activity against Enterococcus faecium; assay type: functional
Homo sapiens [18] = assay: Treatment emergent adverse event in intent-to-treat patient with complicated urinary tract infection assessed as urinary tract infection at 500 […], iv administered every 8 hrs for 10 days; assay type: ADME, organism-based, Urine; parameters: route intravenous; settings: in vivo
Homo sapiens [19] = assay: Treatment emergent adverse event in intent-to-treat patient with complicated urinary tract infection assessed as asymptomatic bacteriuria at 500 […], iv administered every 8 hrs for 10 days; assay type: ADME, organism-based, Urine; parameters: route intravenous; settings: in vivo
Homo sapiens [20] = assay: Drug related treatment emergent adverse event in intent-to-treat patient with complicated urinary tract infection assessed as upper abdominal pain at 500 […], iv administered every 8 hrs for 10 days; assay type: toxicity, organism-based; parameters: dose 500 […], route intravenous; settings: in vivo
Escherichia coli [21] = assay: Antibacterial activity against Escherichia coli infected in microbiologically evaluable patient with UTI assessed as cure rate at 500 mg, iv administered every 8 hrs for 10 days measured at test-of-cure visit; assay type: functional
Homo sapiens [22] = assay: Treatment emergent adverse event in intent-to-treat patient with complicated urinary tract infection assessed as >=1 adverse event at 500 mg/kg, iv administered every 8 hrs for 10 days; assay type: organism-based, Urine; parameters: dose 500 mg/kg, route intravenous; settings: in vivo
Homo sapiens [23] = assay: Treatment emergent adverse event in intent-to-treat patient with complicated urinary tract infection assessed as back pain at 500 […], iv administered every 8 hrs for 10 days; assay type: organism-based; parameters: route intravenous; settings: in vivo
Enterococcus avium = assay: Antibacterial activity against doripenem-resistant Enterococcus avium; assay type: functional
Homo sapiens [24] = assay: Drug related treatment emergent adverse event in intent-to-treat patient with complicated urinary tract infection assessed as diarrhea at 500 […], iv administered every 8 hrs for 10 days; assay type: toxicity, organism-based; parameters: dose 500 […], route intravenous; settings: in vivo

Compound: C[C@@H](O)[C@H]1C(=O)N2C(C(=O)O)=C(S[C@@H]3CN[C@H](CNS(N)(=O)=O)C3)[C@H](C)[C@H]12 [DORIPENEM]
- Activity (Homo sapiens [1]): 5.9%
- Activity (Klebsiella pneumoniae): 83.3%
- MIC (Enterococcus faecalis): ≥ 16 µg/mL
- Activity (Homo sapiens [2]): 4.5%
- Activity (Homo sapiens [3]): 2.4%
- Activity (Homo sapiens [4]): 28.2%
- Activity (Homo sapiens [5]): 3.7%
- MIC (Staphylococcus aureus): ≥ 16 µg/mL
- Activity (Proteus mirabilis): 69.6%
- MIC (Escherichia coli [6]): 0.06 µg/mL (≈ 0.143 µM)
- Activity (Escherichia coli [7]): 55%
- Activity (Homo sapiens [8]): 4.5%
- Activity (Escherichia coli [9]): 86%
- Activity (Homo sapiens [10]): 1.9%
- Activity (Homo sapiens [11]): 15.7%
- Activity (Homo sapiens [12]): 4.3%
- Activity (Homo sapiens [13]): 5.1%
- Activity (Homo sapiens [14]): 5.6%
- Activity (Homo sapiens [15]): 2.9%
- MIC (Serratia marcescens): 0.5 µg/mL (≈ 1.19 µM)
- Activity (Homo sapiens [16]): 3.7%
- Activity (Homo sapiens [17]): 2.1%
- MIC (Enterococcus faecium): ≥ 16 µg/mL
- Activity (Homo sapiens [18]): 3.7%
- Activity (Homo sapiens [19]): 3.7%
- Activity (Homo sapiens [20]): 0.5%
- Activity (Escherichia coli [21]): 84.4%
- Activity (Homo sapiens [22]): 64%
- Activity (Homo sapiens [23]): 2.1%
- MIC (Enterococcus avium): 128 µg/mL (≈ 304 µM)
- Activity (Homo sapiens [24]): 4%
